Reference: patent publication US6114390A, “Amino acid derivatives, pharmaceutical compositions containing these compounds and processes for preparing them” (Karl Thomae GmbH, priority 1997, dated 2000)
Where a name gives a salt, the structure may show the parent alone.

Legend:
NPY [1] = assay: In vivo NPY-antagonism, NPY-induced blood pressure effects in pithed rats; conditions: Rattus norvegicus, iv, 1 min, NPY 10 μg/kg i.v., diastolic blood pressure, read-out: pIC50 (in vivo NPY-antagonism) (converted)
Protocol: After intubation of the trachea the animals are pithed by introducing a blunt needle through the eye into the spinal bone marrow channel. The animals are ventilated with oxygen-rich ambient air using a respiratory pump (20 strokes/minute). A cannula is inserted in the left carotid artery and the arterial blood pressure is measured using a pressure gauge (Braun Melsungen Combitrans) connected to a recording device. For injection purposes a catheter is placed in the left jugular vein through which heparin is administered (200 IU/kg, i.v.). After the blood pressure has been stabilised, the animals are given 2 bolus injections of NPY (10 μg/kg, i.v.) at intervals of 15 minutes. The average increase in diastolic blood pressure is taken as the reference value (=100%). The test substances are injected in increasing doses (4 to 6 doses) at intervals of 15 minutes. One minute after administration of the test substance, NPY is administered.
The antagonistic effect of the test substances is determined by plotting the percentage inhibition of the NPY-induced blood pressure effects against the logarithm of the concentration of active substance.

NPY [2] = assay: NPY-antagonism in vitro, isolated perfused rat kidney; conditions: NPY 1 μM bolus
Protocol: The abdomen is opened along the centre of the body and the left kidney is removed after the insertion of catheters in the renal artery, renal vein and ureter. The isolated kidney is immediately perfused with a modified Krebs-Ringer solution having the following composition (4 ml/minute):
The perfusion pressure is measured continuously using a pressure gauge. After a 60 minute stabilisation period the perfusion rate is adjusted so as to obtain a perfusion pressure of approximately 100 mm Hg. After a further 30 minutes the experiment is started and NPY (1μM) is administered as a bolus (0.1 ml) at 15 minute intervals until the pressure increase observed reaches a constant value. The compounds to be tested are given in the form of a continuous infusion over a period of 5 minutes and then NPY is injected. After a 30 minute wash-out period the next highest concentration of test substance is investigated. 3 to 5 different concentrations of the particular compound are tested on each occasion. Concentration/activity curves can be obtained by plotting the percentage inhibition of the NPY activity against the logarithm of the concentration (mol/1) of the compound.

NPY induced food intake = assay: Food intake in satiated rats after NPY application to the PVN; format: in vivo, rat
Protocol: For these determinations food intake was measured in normal satiated rats after application of NPY to the paraventricular nucleus (PVN) in the presence or absence of the test compound. […] The rats were individually housed in stainless steel cages where water and food were available ad libitum.
Rats under Pentobarbital anaesthesia were stereotactically implanted with a stainless steel double guide cannula targeted bilaterally at the PVNs. Stereotactic coordinates were: -1.8mm caudal, 0.5mm lateral to bregma and 7.0 mm below the skull surface. Injection cannulae extended the guide cannulae by 1 mm. Animals were allowed to recover from surgery for at least 10 days before being used in the experiments. Rats were handled and mock-injected during the […] recovery period to habituate them to the injection procedure.
Animals treated with both test compounds and NPY were treated first with the test compound. Then, 15 min. after PVN infusion of the test compound or vehicle (control) 1 μg of NPY was administered by PVN infusion.
Food intake was measured by placing preweighed pellets into the cages at the time of NPY injection. Pellets were removed from the cage at 2 h post NPY injection. The food intake of animals treated with test compound was calculated as a percentage of the food intake of control animals, i.e., animals treated with vehicle.

human Y1 -receptor = molecular target: T1, human Y1 -receptor (Homo sapiens, UniProt P25929); assay: Receptor binding to SK-N-MC cells ([125I]-Bolton-Hunter-NPY displacement); conditions: Table 1
T1 construct: endoge- nously expressing Y1 and Y2 receptors; endogenous in cells; host or cells: SK-N-MC (neuroblastoma) cells
T1 sequence (P25929 1-384): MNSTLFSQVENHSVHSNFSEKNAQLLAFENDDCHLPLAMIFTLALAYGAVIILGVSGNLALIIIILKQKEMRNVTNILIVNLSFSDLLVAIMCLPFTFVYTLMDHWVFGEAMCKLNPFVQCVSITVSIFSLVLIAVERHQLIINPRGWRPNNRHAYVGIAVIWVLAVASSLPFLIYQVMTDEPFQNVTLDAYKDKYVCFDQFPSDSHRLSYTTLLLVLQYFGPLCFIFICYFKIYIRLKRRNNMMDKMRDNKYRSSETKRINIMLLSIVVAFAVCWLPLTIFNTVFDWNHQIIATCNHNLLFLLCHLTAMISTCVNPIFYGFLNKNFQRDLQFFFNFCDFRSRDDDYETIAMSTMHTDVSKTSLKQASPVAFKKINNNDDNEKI
Protocol: Incubation is ended by centrifuging (10 minutes at 3000×gand […].). After washing once with PBS, the radioactivity of the pellet is measured in a gamma counter. […] The proportion of non-specific binding is defined as that radioactivity which is bound in the presence of 1 μM NPY. The IC50 values of the unlabelled test substances are determined graphically.

Molecule | IC50 (human Y1 -receptor) [nM] | further results
CN(CCCC(NC(=O)C(c1ccccc1)c1ccccc1)C(=O)NCc1ccc(O)cc1)C(=N)N (racemic) [Compound E, (R,S)-N^5-(Aminoiminomethyl)-N^2-(diphenylacetyl)-N-[(4-hydroxyphenyl)methyl]-N^5-methyl-ornithinamide-hydrochloride] |  | ED50 (NPY [1]): 0.0135 µmol/kg; pIC50 (NPY-antagonism in vitro) (NPY [2]): 8.41
N=C(N)NCCC[C@@H](NC(=O)C(c1ccc(O)cc1)c1ccc(O)cc1)C(=O)NCc1ccc(CNC(N)=O)cc1 [A] |  | % Inhibition of food intake (NPY induced food intake; 30 μg, PVN, 2 h, 1 μg NPY): 32%; Food intake following NPY application (NPY induced food intake; 30 μg, PVN, 2 h, 1 μg NPY): 2.40 g/animal
CCOC(=O)NC(=O)NCc1ccc(CNC(=O)[C@@H](CCCNC(=N)N)NC(=O)C(c2ccccc2)c2ccccc2)cc1 [H, (R)-N^2-(Diphenylacetyl)-N-[[4-(ethoxycarbonylamino-carbonylaminomethyl)phenyl]methyl]-argininamide-trifluor-acetate] | 1.1 | 
CN(C)C(=O)NCc1ccc(CNC(=O)[C@@H](CCCNC(=N)N)NC(=O)C(c2ccccc2)c2ccccc2)cc1 [I, (R)-N-[[4-(Dimethylaminocarbonylaminomethyl)phenyl]methyl]-N^2-(diphenylacetyl)-argininamide-bis-(trifluor-acetate)] | 1.5 | 
N=C(N)NCCC[C@@H](NC(=O)Nc1ccc(Cl)c(Cl)c1)C(=O)NCc1ccc(CNC(N)=O)cc1 [K] | 1.8 | 
COC(=O)COc1ccc(C(C(=O)N[C@H](CCCNC(=N)N)C(=O)NCc2ccc(CNC(N)=O)cc2)c2ccc(O)cc2)cc1 (stereo partly drawn) [L] | 2.2 | 
N=C(N)NCCC[C@@H](NC(=O)C(c1ccccc1)c1ccccc1)C(=O)OCc1ccc(CNC(N)=O)cc1 [M, (R)-N^2-(Diphenylacetyl)-arginine-[4-(aminocarbonylamino-methyl)phenyl]methylester-trifluoracetate] | 3 | 
COc1ccc2cc(C(=O)N[C@H](CCCNC(=N)N)C(=O)NCc3ccc(CNC(N)=O)cc3)ccc2c1 [N, (R)-N-[[4-(Aminocarbonylaminomethyl)phenyl]methyl]-N^2-(6-methoxy-2-naphthoyl)-argininamide-acetate] | 3.4 | 
N=C(N)NCCC[C@@H](NC(=O)CC(c1ccccc1)c1ccccc1)C(=O)NCc1ccc(CNC(N)=O)cc1 [O, (R)-N-[[4-(Aminocarbonylaminomethyl)phenyl]methyl]-N^2-(3,3-diphenyl-1-oxopropyl)-argininamide] | 3.45 | 
CN(Cc1ccc(CNC(N)=O)cc1)C(=O)[C@@H](CCCNC(=N)N)NC(=O)C(c1ccccc1)c1ccccc1 [P, (R)-N-[[4-(Aminocarbonylaminomethyl)phenyl]methyl]-N^2-(diphenylacetyl)-N-methyl-argininamide-acetate] | 3.5 | 
CCOC(=O)NCc1ccc(CNC(=O)[C@@H](CCCNC(=N)N)NC(=O)C(c2ccccc2)c2ccccc2)cc1 [Q, (R)-N^2-(Diphenylacetyl)-N-[[4-(ethoxycarbonylamino-methyl)phenyl]methyl]-argininamide-trifluoracetate] | 4.25 | ED50 (NPY [1]): 0.162 µmol/kg; pIC50 (NPY-antagonism in vitro) (NPY [2]): 7.77
N=C(N)NCCC[C@@H](NC(=O)Cc1cc(Cl)c(N)c(Cl)c1)C(=O)NCc1ccc(CNC(N)=O)cc1 [R, (R)-N-[[4-(Aminocarbonylaminomethyl)phenyl]methyl]-N^2-[(4-amino-3,5-dichlorphenyl)acetyl]-argininamide-tri-fluoracetate] | 4.5 | 
NC(=O)Cc1ccc(CNC(=O)[C@@H](CCCNc2ncc[nH]2)NC(=O)C(c2ccccc2)c2ccccc2)cc1 [S, (R)-N-[[4-(Aminocarbonylmethyl)phenyl]methyl]-N^2-(diphenylacetyl)-N^5-(1H-imidazol-2-yl)-ornithinamide-hydroiodide] | 28.3 | 
Neuropeptide Y [NPY, reference compound] |  | two hour food intake induced by NPY (NPY induced food intake; NPY 1 μg, versus 0.5 g with vehicle): 3.5 g
